Source: US11058680B2, “Combinations of opioid/TLR4 antagonists and acetaminophen for use in the treatment of emotional pain and insomnia” (Allodynic Threapeutics, LLC, priority 2016, dated 2021)
Where “and” joins values, the source holds several entries; their conditions need not be identical. Equal entries are not always repeated.

Tested on: migraine attacks
Test: Naltrexone/acetaminophen open-label pilot study, acute treatment of migraine: headache pain (4-point scale; relief score ≤1, pain-free score = 0), associated symptoms, additional meds
Format: in vivo, human
Experimental: Sixteen unique patients were enrolled in an open phase pilot study for the acute treatment of migraine attacks, insomnia, and emotional pain. Of the sixteen patients, eleven were evaluated for one migraine attack, one for two attacks, two for four attacks, one for six attacks, and one for fourteen attacks. A total of forty-one […] treatments were evaluated. Patients received a single dose of one of the following treatment options:
The majority of the patients remained in the clinic for observation for 2 hours after dosing. They completed headache diary assessments immediately before and after dosing at time points: 7, 15, and 30 minutes; and 1, 1.5, 2, 3, 6, 12, 24, and 48 hours. Headache pain was assessed on a 4-point scale (0=none; 1=mild; 2=moderate; 3=severe). The assessment of photophobia, phonophobia, nausea, and neck/shoulder pain was assessed as present or absent. The assessment of emotional pain was recorded on a 4-point scale (0=none, 1=mild, 2=moderate, 3=severe). The assessment of difficulty sleeping or falling asleep (insomnia) was assessed on a 4-point scale (0=none, 1=mild, 2=moderate, 3=severe) at baseline, for the night before treatment and for the following nights at 24, and 48 hours. Patients recorded side effects severity at each time point. Patients recorded the time of the first rescue medication dose and all additional headache medications used within 48 hours. Patients were required to stay awake to record their assessments in the first 2 hours, sleeping was permitted thereafter. While asleep, assessments were completed according to patients' best estimation. For data analysis, it was assumed that a migraine attack is a unique patient. Patients were asked to specify (yes or no answer) to whether they experienced emotional pain symptoms such as: hurt feelings, sadness, fear, or anger. Patients who replied positively to having emotional pain were asked to specify the cause into one of the following options: relationship, work/school, money/debt, health, or loss/grief.

[1] = 3 h, NTX/APAP 3.25 mg/325 mg, NTX 3.25 mg
[2] = 3 h, NTX/APAP 5 mg/325 mg, NTX 5 mg
[3] = 3 h, NTX/APAP […]325 mg, NTX 1.5 mg
[4] = 3 h, naltrexone/acetaminophen 2.25 mg/325 mg (N=21), naltrexone 2.25 mg (N=9)
[5] = 4 h, NTX/APAP 2.25 mg/325 mg, NTX 2.25 mg
[6] = 4 h, NTX/APAP 3.25 mg/325 mg, NTX 3.25 mg
[7] = 4 h, NTX/APAP 5 mg/325 mg, NTX 5 mg
[8] = 4 h, NTX/APAP […]325 mg, NTX 1.5 mg
[9] = 4 h, naltrexone/acetaminophen 2.25 mg/325 mg (N=21), naltrexone 2.25 mg (N=9)
[10] = 6 h, NTX/APAP 2.25 mg/325 mg, NTX 2.25 mg
[11] = 6 h, NTX/APAP 3.25 mg/325 mg, NTX 3.25 mg
[12] = 6 h, NTX/APAP 5 mg/325 mg, NTX 5 mg
[13] = 6 h, NTX/APAP […]325 mg, NTX 1.5 mg
[14] = 6 h, naltrexone/acetaminophen 2.25 mg/325 mg (N=21), naltrexone 2.25 mg (N=9)
[15] = 12 h, NTX/APAP 2.25 mg/325 mg, NTX 2.25 mg

Structure (SMILES): O=C1CC[C@@]2(O)[C@H]3Cc4ccc(O)c5c4[C@@]2(CCN3CC2CC2)[C@H]1O5 [naltrexone]
- Photophobia-free (3 h, NTX/APAP 2.25 mg/325 mg, NTX 2.25 mg): 8 (88) n (%)
- Additional meds taken [1]: 0
- Headache pain-free [1]: 3 (100) n (%)
- Headache pain-relief [1]: 3 (100) n (%)
- Most bothersome symptom free [1]: 3 (100) n (%)
- Nausea-free [1]: 3 (100) n (%)
- Neck/shoulder pain-free [1]: 3 (100) n (%)
- Phonophobia-free [1]: 3 (100) n (%)
- Photophobia-free [1]: 3 (100) n (%)
- Additional meds taken [2]: 0
- Headache pain-free [2]: 1 (100) n (%)
- Headache pain-relief [2]: 1 (100) n (%)
- Most bothersome symptom free [2]: 1 (100) n (%)
- Nausea-free [2]: 1 (100) n (%)
- Neck/shoulder pain-free [2]: 1 (100) n (%)
- Phonophobia-free [2]: 1 (100) n (%)
- Photophobia-free [2]: 1 (100) n (%)
- Additional meds taken [3]: 0
- Headache pain-free [3]: 3 (100) n (%)
- Headache pain-relief [3]: 3 (100) n (%)
- Most bothersome symptom free [3]: 3 (100) n (%)
- Nausea-free [3]: 3 (100) n (%)
- Neck/shoulder pain-free [3]: 3 (100) n (%)
- Phonophobia-free [3]: 3 (100) n (%)
- Photophobia-free [3]: 3 (100) n (%)
- Additional meds taken (3 h, combined doses): 0
- Headache pain-free (3 h, combined doses): 14 (88) n (%)
- Headache pain-relief (3 h, combined doses): 16 (100) n (%)
- Most bothersome symptom free (3 h, combined doses): 16 (100) n (%)
- Nausea-free (3 h, combined doses): 16 (100) n (%)
- Neck/shoulder pain-free (3 h, combined doses): 16 (100) n (%)
- Phonophobia-free (3 h, combined doses): 16 (100) n (%)
- Photophobia-free (3 h, combined doses): 15 (94) n (%)
- Headache pain-free (3 h, naltrexone 1.5 mg (N=3)): 100%
- Headache pain-free [4]: 77% and 100%
- Headache pain-relief [4]: 100%
- Most bothersome symptom-free [4]: 100%
- Headache pain-free (3 h, naltrexone/acetaminophen 3.25 mg/325 mg (N=3), naltrexone 3.25 mg (N=3)): 100%
- Additional meds taken [5]: 0 (0)
- Headache pain-free [5]: 6 (66) n (%)
- Headache pain-relief [5]: 8 (88) n (%)
- Most bothersome symptom-free [5]: 8 (88) n (%)
- Nausea-free [5]: 8 (88) n (%)
- Neck/shoulder pain-free [5]: 9 (100) n (%)
- Phonophobia-free [5]: 8 (88) n (%)
- Photophobia-free [5]: 7 (77) n (%)
- Additional meds taken [6]: 0
- Headache pain-free [6]: 3 (100) n (%)
- Headache pain-relief [6]: 3 (100) n (%)
- Most bothersome symptom-free [6]: 3 (100) n (%)
- Nausea-free [6]: 3 (100) n (%)
- Neck/shoulder pain-free [6]: 3 (100) n (%)
- Phonophobia-free [6]: 3 (100) n (%)
- Photophobia-free [6]: 3 (100) n (%)
- Additional meds taken [7]: 0
- Headache pain-free [7]: 1 (100) n (%)
- Headache pain-relief [7]: 1 (100) n (%)
- Most bothersome symptom-free [7]: 1 (100) n (%)
- Nausea-free [7]: 1 (100) n (%)
- Neck/shoulder pain-free [7]: 1 (100) n (%)
- Phonophobia-free [7]: 1 (100) n (%)
- Photophobia-free [7]: 1 (100) n (%)
- Additional meds taken [8]: 0
- Headache pain-free [8]: 3 (100) n (%)
- Headache pain-relief [8]: 3 (100) n (%)
- Most bothersome symptom-free [8]: 3 (100) n (%)
- Nausea-free [8]: 3 (100) n (%)
- Neck/shoulder pain-free [8]: 3 (100) n (%)
- Phonophobia-free [8]: 3 (100) n (%)
- Photophobia-free [8]: 3 (100) n (%)
- Additional meds taken (4 h, combined doses): 0
- Headache pain-free (4 h, combined doses): 13 (81) n (%)
- Headache pain-relief (4 h, combined doses): 15 (94) n (%)
- Most bothersome symptom-free (4 h, combined doses): 15 (94) n (%)
- Nausea-free (4 h, combined doses): 15 (94) n (%)
- Neck/shoulder pain-free (4 h, combined doses): 16 (100) n (%)
- Phonophobia-free (4 h, combined doses): 15 (94) n (%)
- Photophobia-free (4 h, combined doses): 14 (88) n (%)
- Headache pain-free (4 h, naltrexone 1.5 mg (N=3)): 100%
- Headache pain-free [9]: 66% and 100%
- Headache pain-relief [9]: 88%
- Most bothersome symptom-free [9]: 88%
- Headache pain-free (4 h, naltrexone/acetaminophen 3.25 mg/325 mg (N=3), naltrexone 3.25 mg (N=3)): 100%
- Additional meds taken [10]: 0 (0)
- Headache pain-free [10]: 7 (77) n (%)
- Headache pain-relief [10]: 9 (100) n (%)
- Most bothersome symptom-free [10]: 9 (100) n (%)
- Nausea-free [10]: 9 (100) n (%)
- Neck/shoulder pain-free [10]: 9 (100) n (%)
- Phonophobia-free [10]: 9 (100) n (%)
- Photophobia-free [10]: 8 (88) n (%)
- Additional meds taken [11]: 0
- Headache pain-free [11]: 3 (100) n (%)
- Headache pain-relief [11]: 3 (100) n (%)
- Most bothersome symptom-free [11]: 3 (100) n (%)
- Nausea-free [11]: 3 (100) n (%)
- Neck/shoulder pain-free [11]: 3 (100) n (%)
- Phonophobia-free [11]: 3 (100) n (%)
- Photophobia-free [11]: 3 (100) n (%)
- Additional meds taken [12]: 0
- Headache pain-free [12]: 1 (100) n (%)
- Headache pain-relief [12]: 1 (100) n (%)
- Most bothersome symptom-free [12]: 1 (100) n (%)
- Nausea-free [12]: 1 (100) n (%)
- Neck/shoulder pain-free [12]: 1 (100) n (%)
- Phonophobia-free [12]: 1 (100) n (%)
- Photophobia-free [12]: 1 (100) n (%)
- Additional meds taken [13]: 0
- Headache pain-free [13]: 3 (100) n (%)
- Headache pain-relief [13]: 3 (100) n (%)
- Most bothersome symptom-free [13]: 3 (100) n (%)
- Nausea-free [13]: 3 (100) n (%)
- Neck/shoulder pain-free [13]: 3 (100) n (%)
- Phonophobia-free [13]: 3 (100) n (%)
- Photophobia-free [13]: 3 (100) n (%)
- Additional meds taken (6 h, combined doses): 0
- Headache pain-free (6 h, combined doses): 14 (88) n (%)
- Headache pain-relief (6 h, combined doses): 16 (100) n (%)
- Most bothersome symptom-free (6 h, combined doses): 16 (100) n (%)
- Nausea-free (6 h, combined doses): 16 (100) n (%)
- Neck/shoulder pain-free (6 h, combined doses): 16 (100) n (%)
- Phonophobia-free (6 h, combined doses): 16 (100) n (%)
- Photophobia-free (6 h, combined doses): 15 (94) n (%)
- Headache pain-free (6 h, naltrexone 1.5 mg (N=3)): 100%
- Headache pain-free [14]: 77% and 100%
- Headache pain-relief [14]: 100%
- Most bothersome symptom-free [14]: 100%
- Headache pain-free (6 h, naltrexone/acetaminophen 3.25 mg/325 mg (N=3), naltrexone 3.25 mg (N=3)): 100%
- Additional meds taken [15]: 0 (0)
- Headache pain-free [15]: 7 (77) n (%)
- Headache pain-relief [15]: 9 (100) n (%)
- Most bothersome symptom-free [15]: 9 (100) n (%)
